Test results: patent US6812255B2, “Use of aloe-emodin in the treatment of neuroectodermal tumors” (Universita Degli Studi Di Padova, priority 2002, dated 2004)
pEC50: −log10 of the molar value.

Legend:
[1] = Acute and chronic toxicity in Swiss mice; format: in vivo; settings: i.p.
Method: In the first case assays on acute and chronic toxicity are carried out on Swiss mice (males aged 8-10 weeks) to show possible effects of general toxicity due to AE on weight, neurological and intestinal functions, and hematological parameters. The animals were treated with high doses by intraperitoneal route, between 30 mg/Kg/die and 50 mg/Kg/die, in one administration and with low doses, between 1 mg/Kg/die and 10 mg/Kg/die, for repeated dosages.
The animals were monitored to check possible neurological damages by means of periodically repeated behavioral tests, to check hematic toxicity by means of weekly hemochrome analyses, and to check intestinal toxicity by means of daily faeces analyses. Moreover, the animals have also been weighed twice a week during the whole test. At the end of the tests the animals have been killed and the autopsy has been conducted.

[2] = system: hemopoietic progenitors cells from cord blood; test: Clonogenic test, CFU-GM from cord blood; format: cell-based; settings: Homo sapiens, 336 h, methyl cellulose, 1-100 μM, 14 days, read-out: ED50 for the growth of CFU-GM colonies
Method: (§1) Clonogenic tests have also been carried out on hemopoietic progenitors cells, obtained from bone marrow (BM ? ) of healthy donors and from cord blood (CB □), and on neuroblastoma cells (SJ-N-KP ▪). The cell have been grown in methyl cellulose with scalar doses of AE in concentrations between 1 and 100 μM for 14 days.

[3] = system: neuroblastoma (IMR-32, IMR-5, AF8, SJ-N-KP); test: In vitro cytotoxicity assay, neuroblastoma cell lines; format: cell-based; settings: Homo sapiens, 72 hours exposure, 0 to 100 μM, read-out: ED50 (half-maximal effective dose), cytotoxicity
Description: (§2) tumors of neuroectodermic origin: neuroblastoma (IMR-32, IMR-5, AF8, SJ-N-KP), pPNET (TC32), Ewing's sarcoma (TC106), melanoma (Mel 23);

[4] = system: acute lymphocytic leukemia lines (CEM, CEM VBL); test: In vitro cytotoxicity assay, leukemia lines; format: cell-based; settings: Homo sapiens, 72 hours exposure, 0 to 100 μM, read-out: ED50 (half-maximal effective dose), cytotoxicity
Description: tumors of different origin: T-cell leukemia (CEM) and T-cell leukemia vinblastine-resistant (CEM VBL), colon adenocarcinoma (LoVo 109) and colon adenocarcinoma doxorubicin-resistant (LoVo DX), cervix epithelioid carcinoma (HeLa);

[5] = system: Ewing's sarcoma (TC106); test: In vitro cytotoxicity assay, Ewing's sarcoma cells; format: cell-based; settings: Homo sapiens, 72 hours exposure, 0 to 100 μM, read-out: ED50 (half-maximal effective dose), cytotoxicity
Description: as §2

[6] = system: hemopoietic progenitors cells from bone marrow of healthy donors; test: Clonogenic test, CFU-GM from bone marrow; format: cell-based; settings: Homo sapiens, 336 h, methyl cellulose, 1-100 μM, 14 days, read-out: ED50 for the growth of CFU-GM colonies
Method: as §1

[7] = In vitro cytotoxicity assay, normal fibroblasts; format: cell-based; settings: human, normal lung fibroblasts (MRC5), 72 hours exposure, 0 to 100 μM, read-out: ED50 (half-maximal effective dose), cytotoxicity
Description: normal cells: human lung fibroblasts (MRC5).

[8] = system: neuroectodermal tumor cells

Row | Compound | general toxicity (weight, neurological, intestinal, hematological) ([1]; 30-50 mg/Kg/die single or 1-10 mg/Kg/die repeated) | autopsy findings ([1]; at the end of the tests) | pEC50 [2] | pEC50 [3] | pEC50 [4] | pEC50 [5] | pEC50 [6] | EC50 at 72 h [7] [µM] | cytotoxic effect [8]
1 | O=C1c2cccc(O)c2C(=O)c2c(O)cc(CO)cc21 [AE, 1,8-dihydroxy-3-hydroxymethyl-9.10-anthracenedione] | No toxicity | not shown any damage to the main organs | 3.92 | 6.00 | 4.00 | 4.89 | 4.10 | 40 | –
2 | O=C1c2c(O)cccc2C(C2O[C@H](CO)[C@@H](O)[C@H](O)[C@H]2O)c2cc(CO)cc(O)c21 (stereo partly drawn) [glycosylated form of AE, 10-1,5anhydroglucosyl-1,8-dihydroxy-3-hydroxymethyl-9-anthrone] | – | – | – | – | – | – | – | – | no cytotoxic effect
